Test results taken from the supplement of paper PMC10307832.

Key:
Experiment in all cases: relative viability (nuclei count vs DMSO), 5 days (fraction); higher = more cells survive
[1] = compound: COc1ncc(-c2ccc3nccc(-c4ccnnc4)c3c2)cc1NS(=O)(=O)c1ccc(F)cc1F [Omipalisib] + Nc1nc2[nH]cc(CCc3ccc(C(=O)N[C@@H](CCC(=O)O)C(=O)O)cc3)c2c(=O)[nH]1 [Pemetrexed] (partner 0.2 µM)
Outline: (§1)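 Nuclei were stained with Hoechst during a one-step fixation (final 0.05% Triton X-100, 1% formaldehyde, 1 ug/ml Hoechst) carried out 5 days after dosing, then counted on 4× images. The cells, lung cancer lines in 1536-well plates, had been dosed by pin tool the day after seeding with one drug alone or a fixed anchor-drug dose plus five library-drug doses (not always all listed) in √10 steps. Relative viability is the nuclei count in treated wells divided by that in vehicle wells, and each value is the median of duplicate plates.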

[2] = compound: COc1ncc(-c2ccc3nccc(-c4ccnnc4)c3c2)cc1NS(=O)(=O)c1ccc(F)cc1F [Omipalisib] + CS(=O)(=O)N1CCN(Cc2cc3nc(-c4cccc5[nH]ncc45)nc(N4CCOCC4)c3s2)CC1 [Pictilisib] (partner 1 µM)
Outline: as §1

[3] = compound: COc1ncc(-c2ccc3nccc(-c4ccnnc4)c3c2)cc1NS(=O)(=O)c1ccc(F)cc1F [Omipalisib] + C[C@]1(O)C[C@@H](c2nc(-c3ccc4ccc(-c5ccccc5)nc4c3)c3c(N)nccn32)C1 [Linsitinib] (partner 1 µM)
Outline: as §1

[4] = compound: COc1ncc(-c2ccc3nccc(-c4ccnnc4)c3c2)cc1NS(=O)(=O)c1ccc(F)cc1F [Omipalisib] + COc1cc2c(Oc3ccc(NC(=O)C4(C(=O)Nc5ccc(F)cc5)CC4)cc3F)ccnc2cc1OCCCN1CCOCC1 [Foretinib] (partner 0.25 µM)
Outline: as §1

[5] = compound: COc1ncc(-c2ccc3nccc(-c4ccnnc4)c3c2)cc1NS(=O)(=O)c1ccc(F)cc1F [Omipalisib] + CC(=O)c1c(C)c2cnc(Nc3ccc(N4CCNCC4)cn3)nc2n(C2CCCC2)c1=O [Palbociclib] (partner 0.5 µM)
Outline: as §1

[6] = compound: COc1ncc(-c2ccc3nccc(-c4ccnnc4)c3c2)cc1NS(=O)(=O)c1ccc(F)cc1F [Omipalisib] + CC1(C)CCC(c2ccc(Cl)cc2)=C(CN2CCN(c3ccc(C(=O)NS(=O)(=O)c4ccc(N[C@H](CCN5CCOCC5)CSc5ccccc5)c(S(=O)(=O)C(F)(F)F)c4)cc3)CC2)C1 [Navitoclax] (partner 0.5 µM)
Outline: as §1

Cell Line: NCI-H2228
- relative viability ([1]; first compound 0.0003 µM): 0.351
- relative viability ([1]; first compound 0.003 µM): 0.306
- relative viability ([1]; first compound 0.03 µM): 0.221
- relative viability ([2]; first compound 0.0003 µM): 0.41
- relative viability ([2]; first compound 0.003 µM): 0.265
- relative viability ([2]; first compound 0.03 µM): 0.407
- relative viability ([3]; first compound 0.0003 µM): 0.724
- relative viability ([3]; first compound 0.003 µM): 0.282
- relative viability ([3]; first compound 0.03 µM): 0.211
- relative viability ([4]; first compound 0.0003 µM): 0.957
- relative viability ([4]; first compound 0.003 µM): 0.74
- relative viability ([4]; first compound 0.03 µM): 0.25
- relative viability ([5]; first compound 0.0003 µM): 0.839
- relative viability ([5]; first compound 0.003 µM): 0.47
- relative viability ([5]; first compound 0.03 µM): 0.234
- relative viability ([6]; first compound 0.0003 µM): 0.972
- relative viability ([6]; first compound 0.003 µM): 0.581
- relative viability ([6]; first compound 0.03 µM): 0.204

Cell Line: NCI-H2347
- relative viability ([1]; first compound 0.0003 µM): 0.45
- relative viability ([1]; first compound 0.003 µM): 0.484
- relative viability ([1]; first compound 0.03 µM): 0.445
- relative viability ([2]; first compound 0.0003 µM): 0.682
- relative viability ([2]; first compound 0.003 µM): 0.612
- relative viability ([2]; first compound 0.03 µM): 0.449
- relative viability ([3]; first compound 0.0003 µM): 0.892
- relative viability ([3]; first compound 0.003 µM): 0.947
- relative viability ([3]; first compound 0.03 µM): 0.61
- relative viability ([4]; first compound 0.0003 µM): 0.905
- relative viability ([4]; first compound 0.003 µM): 0.699
- relative viability ([4]; first compound 0.03 µM): 0.454
- relative viability ([5]; first compound 0.0003 µM): 0.393
- relative viability ([5]; first compound 0.003 µM): 0.432
- relative viability ([5]; first compound 0.03 µM): 0.4
- relative viability ([6]; first compound 0.0003 µM): 0.764
- relative viability ([6]; first compound 0.003 µM): 0.671
- relative viability ([6]; first compound 0.03 µM): 0.278

Cell Line: NCI-H2405
- relative viability ([1]; first compound 0.0003 µM): 1.12
- relative viability ([1]; first compound 0.003 µM): 0.718
- relative viability ([1]; first compound 0.03 µM): 0.444
- relative viability ([2]; first compound 0.0003 µM): 0.433
- relative viability ([2]; first compound 0.003 µM): 0.389
- relative viability ([2]; first compound 0.03 µM): 0.355
- relative viability ([3]; first compound 0.0003 µM): 0.931
- relative viability ([3]; first compound 0.003 µM): 0.68
- relative viability ([3]; first compound 0.03 µM): 0.387
- relative viability ([4]; first compound 0.0003 µM): 1.01
- relative viability ([4]; first compound 0.003 µM): 0.756
- relative viability ([4]; first compound 0.03 µM): 0.39
- relative viability ([5]; first compound 0.0003 µM): 0.507
- relative viability ([5]; first compound 0.003 µM): 0.392
- relative viability ([5]; first compound 0.03 µM): 0.312
- relative viability ([6]; first compound 0.0003 µM): 0.812
- relative viability ([6]; first compound 0.003 µM): 0.618
- relative viability ([6]; first compound 0.03 µM): 0.323

Cell Line: NCI-H3122
- relative viability ([1]; first compound 0.0003 µM): 0.214
- relative viability ([1]; first compound 0.003 µM): 0.192
- relative viability ([1]; first compound 0.03 µM): 0.202
- relative viability ([2]; first compound 0.0003 µM): 0.538
- relative viability ([2]; first compound 0.003 µM): 0.472
- relative viability ([2]; first compound 0.03 µM): 0.475
- relative viability ([3]; first compound 0.0003 µM): 1.11
- relative viability ([3]; first compound 0.003 µM): 0.699
- relative viability ([3]; first compound 0.03 µM): 0.392
- relative viability ([4]; first compound 0.0003 µM): 0.942
- relative viability ([4]; first compound 0.003 µM): 0.802
- relative viability ([4]; first compound 0.03 µM): 0.522
- relative viability ([5]; first compound 0.0003 µM): 0.168
- relative viability ([5]; first compound 0.003 µM): 0.153
- relative viability ([5]; first compound 0.03 µM): 0.144
- relative viability ([6]; first compound 0.0003 µM): 1.02
- relative viability ([6]; first compound 0.003 µM): 0.991
- relative viability ([6]; first compound 0.03 µM): 0.402

Cell Line: PC-3 [JPC-3]
- relative viability ([1]; first compound 0.0003 µM): 1.03
- relative viability ([1]; first compound 0.003 µM): 1.12
- relative viability ([1]; first compound 0.03 µM): 0.89
- relative viability ([2]; first compound 0.0003 µM): 0.816
- relative viability ([2]; first compound 0.003 µM): 0.766
- relative viability ([2]; first compound 0.03 µM): 0.689
- relative viability ([3]; first compound 0.0003 µM): 0.962
- relative viability ([3]; first compound 0.003 µM): 0.976
- relative viability ([3]; first compound 0.03 µM): 0.92
- relative viability ([4]; first compound 0.0003 µM): 1.03
- relative viability ([4]; first compound 0.003 µM): 1.03
- relative viability ([4]; first compound 0.03 µM): 0.856
- relative viability ([5]; first compound 0.0003 µM): 0.547
- relative viability ([5]; first compound 0.003 µM): 0.527
- relative viability ([5]; first compound 0.03 µM): 0.534
- relative viability ([6]; first compound 0.0003 µM): 0.781
- relative viability ([6]; first compound 0.003 µM): 0.76
- relative viability ([6]; first compound 0.03 µM): 0.646

Cell Line: PC-14
- relative viability ([1]; first compound 0.0003 µM): 0.151
- relative viability ([1]; first compound 0.003 µM): 0.155
- relative viability ([1]; first compound 0.03 µM): 0.161
- relative viability ([2]; first compound 0.0003 µM): 0.749
- relative viability ([2]; first compound 0.003 µM): 0.619
- relative viability ([2]; first compound 0.03 µM): 0.383
- relative viability ([3]; first compound 0.0003 µM): 0.954
- relative viability ([3]; first compound 0.003 µM): 0.931
- relative viability ([3]; first compound 0.03 µM): 0.794
- relative viability ([4]; first compound 0.0003 µM): 0.904
- relative viability ([4]; first compound 0.003 µM): 0.961
- relative viability ([4]; first compound 0.03 µM): 0.967
- relative viability ([5]; first compound 0.0003 µM): 0.521
- relative viability ([5]; first compound 0.003 µM): 0.614
- relative viability ([5]; first compound 0.03 µM): 0.327
- relative viability ([6]; first compound 0.0003 µM): 1.02
- relative viability ([6]; first compound 0.003 µM): 1.07
- relative viability ([6]; first compound 0.03 µM): 0.923

Cell Line: RERF-LC-KJ
- relative viability ([1]; first compound 0.0003 µM): 0.47
- relative viability ([1]; first compound 0.003 µM): 0.439
- relative viability ([1]; first compound 0.03 µM): 0.414
- relative viability ([2]; first compound 0.0003 µM): 0.488
- relative viability ([2]; first compound 0.003 µM): 0.463
- relative viability ([2]; first compound 0.03 µM): 0.397
- relative viability ([3]; first compound 0.0003 µM): 0.883
- relative viability ([3]; first compound 0.003 µM): 0.716
- relative viability ([3]; first compound 0.03 µM): 0.697
- relative viability ([4]; first compound 0.0003 µM): 0.786
- relative viability ([4]; first compound 0.003 µM): 0.58
- relative viability ([4]; first compound 0.03 µM): 0.594
- relative viability ([5]; first compound 0.0003 µM): 1.04
- relative viability ([5]; first compound 0.003 µM): 0.846
- relative viability ([5]; first compound 0.03 µM): 0.555
- relative viability ([6]; first compound 0.0003 µM): 0.79
- relative viability ([6]; first compound 0.003 µM): 0.7
- relative viability ([6]; first compound 0.03 µM): 0.627

Cell Line: SK-LU-1
- relative viability ([1]; first compound 0.0003 µM): 1.04
- relative viability ([1]; first compound 0.003 µM): 0.834
- relative viability ([1]; first compound 0.03 µM): 0.751
- relative viability ([2]; first compound 0.0003 µM): 0.685
- relative viability ([2]; first compound 0.003 µM): 0.504
- relative viability ([2]; first compound 0.03 µM): 0.511
- relative viability ([3]; first compound 0.0003 µM): 1.03
- relative viability ([3]; first compound 0.003 µM): 1
- relative viability ([3]; first compound 0.03 µM): 0.679
- relative viability ([4]; first compound 0.0003 µM): 0.869
- relative viability ([4]; first compound 0.003 µM): 0.662
- relative viability ([4]; first compound 0.03 µM): 0.479
- relative viability ([5]; first compound 0.0003 µM): 0.387
- relative viability ([5]; first compound 0.003 µM): 0.329
- relative viability ([5]; first compound 0.03 µM): 0.306
- relative viability ([6]; first compound 0.0003 µM): 0.926
- relative viability ([6]; first compound 0.003 µM): 0.237
- relative viability ([6]; first compound 0.03 µM): 0.625

Cell Line: SK-MES-1
- relative viability ([1]; first compound 0.0003 µM): 0.994
- relative viability ([1]; first compound 0.003 µM): 0.744
- relative viability ([1]; first compound 0.03 µM): 0.376
- relative viability ([2]; first compound 0.0003 µM): 0.423
- relative viability ([2]; first compound 0.003 µM): 0.318
- relative viability ([2]; first compound 0.03 µM): 0.347
- relative viability ([3]; first compound 0.0003 µM): 1.02
- relative viability ([3]; first compound 0.003 µM): 0.785
- relative viability ([3]; first compound 0.03 µM): 0.69
- relative viability ([4]; first compound 0.0003 µM): 0.73
- relative viability ([4]; first compound 0.003 µM): 0.461
- relative viability ([4]; first compound 0.03 µM): 0.344
- relative viability ([5]; first compound 0.0003 µM): 0.273
- relative viability ([5]; first compound 0.003 µM): 0.271
- relative viability ([5]; first compound 0.03 µM): 0.261
- relative viability ([6]; first compound 0.0003 µM): 1.21
- relative viability ([6]; first compound 0.003 µM): 0.836
- relative viability ([6]; first compound 0.03 µM): 0.464
